Active and inactive are the calls of the source. The rule behind the calls is not given here.

This passage reports mutagenic call results from PubChem BioAssay AID1259407 (Chemical Carcinogenesis Research Information System (CCRIS), 2018).

In this data set the test system is CCRIS mutagenicity, Ames/micronucleus/aberration tests. Nature of the data set: CCRIS mutagenicity studies.
[1] abbreviates: Test System: AMES SALMONELLA TYPHIMURIUM, Strain/Indicator: TA98, Metabolic Activation: NONE, Method: PREINCUBATION
Setting [2] is: Test System: AMES SALMONELLA TYPHIMURIUM, Strain/Indicator: TA98, Metabolic Activation: RAT, LIVER, S-9, AROCLOR 1254, Method: STANDARD PLATE.
The mark [3] stands for this setting: Test System: AMES SALMONELLA TYPHIMURIUM, Strain/Indicator: TA100, Metabolic Activation: NONE, Method: PREINCUBATION
Setting [4] is: Test System: AMES SALMONELLA TYPHIMURIUM, Strain/Indicator: TA100, Metabolic Activation: RAT, LIVER, S-9, AROCLOR 1254, Method: STANDARD PLATE.

In the case of `Oc1c(Cl)ccc(Cl)c1Cl`, the mutagenic call (End Point: IN VITRO CHROMOSOMAL ABERRATIONS, Test System: CHINESE HAMSTER LUNG CELLS (CHL), Metabolic Activation: RAT, LIVER, S-9, KC-400) is “active; positive (structural changes)”; the mutagenic call (End Point: IN VITRO CHROMOSOMAL ABERRATIONS, Test System: CHINESE HAMSTER OVARY CELLS (CHO), Metabolic Activation: NONE) was “active; positive (structural changes)”; the mutagenic call (End Point: IN VITRO CHROMOSOMAL ABERRATIONS, Test System: CHINESE HAMSTER OVARY CELLS (CHO), Metabolic Activation: RAT, LIVER, S-9, AROCLOR 1254) was “active; positive (structural changes)”; the mutagenic call (Test System: AMES SALMONELLA TYPHIMURIUM, Strain/Indicator: TA97, Metabolic Activation: HAMSTER, LIVER, S-9, AROCLOR 1254 (10%), Method: PREINCUBATION) is “inactive; negative”; the mutagenic call (Test System: AMES SALMONELLA TYPHIMURIUM, Strain/Indicator: TA97, Metabolic Activation: HAMSTER, LIVER, S-9, AROCLOR 1254 (30%), Method: PREINCUBATION) was “inactive; negative”; the mutagenic call (Test System: AMES SALMONELLA TYPHIMURIUM, Strain/Indicator: TA97, Metabolic Activation: NONE, Method: PREINCUBATION) was “inactive; negative”. Also, the mutagenic call is “inactive; negative” (Test System: AMES SALMONELLA TYPHIMURIUM, Strain/Indicator: TA97, Metabolic Activation: NONE, Method: STANDARD PLATE); “inactive; negative” (Test System: AMES SALMONELLA TYPHIMURIUM, Strain/Indicator: TA97, Metabolic Activation: RAT, LIVER, S-9, AROCLOR 1254 (10%), Method: PREINCUBATION); “inactive; negative” (Test System: AMES SALMONELLA TYPHIMURIUM, Strain/Indicator: TA97, Metabolic Activation: RAT, LIVER, S-9, AROCLOR 1254 (30%), Method: PREINCUBATION); “inactive; negative” (Test System: AMES SALMONELLA TYPHIMURIUM, Strain/Indicator: TA97, Metabolic Activation: RAT, LIVER, S-9, AROCLOR 1254, Method: STANDARD PLATE); “inactive; negative” (Test System: AMES SALMONELLA TYPHIMURIUM, Strain/Indicator: TA98, Metabolic Activation: HAMSTER, LIVER, S-9, AROCLOR 1254 (10%), Method: PREINCUBATION); “inactive; negative” (Test System: AMES SALMONELLA TYPHIMURIUM, Strain/Indicator: TA98, Metabolic Activation: HAMSTER, LIVER, S-9, AROCLOR 1254 (30%), Method: PREINCUBATION). In addition, the mutagenic call under setting [1] is “inactive; negative”; the mutagenic call (Test System: AMES SALMONELLA TYPHIMURIUM, Strain/Indicator: TA98, Metabolic Activation: NONE, Method: STANDARD PLATE) is “inactive; negative”; the mutagenic call (Test System: AMES SALMONELLA TYPHIMURIUM, Strain/Indicator: TA98, Metabolic Activation: RAT, LIVER, S-9, AROCLOR 1254 (10%), Method: PREINCUBATION) is “inactive; negative”; the mutagenic call (Test System: AMES SALMONELLA TYPHIMURIUM, Strain/Indicator: TA98, Metabolic Activation: RAT, LIVER, S-9, AROCLOR 1254 (30%), Method: PREINCUBATION) is “inactive; negative”; the mutagenic call under setting [2] was “active; positive”; the mutagenic call (Test System: AMES SALMONELLA TYPHIMURIUM, Strain/Indicator: TA100, Metabolic Activation: HAMSTER, LIVER, S-9, AROCLOR 1254 (10%), Method: PREINCUBATION) was “inactive; negative”. The mutagenic call (Test System: AMES SALMONELLA TYPHIMURIUM, Strain/Indicator: TA100, Metabolic Activation: HAMSTER, LIVER, S-9, AROCLOR 1254 (30%), Method: PREINCUBATION) is “inactive; negative”; the mutagenic call under setting [3] was “inactive; negative”; the mutagenic call (Test System: AMES SALMONELLA TYPHIMURIUM, Strain/Indicator: TA100, Metabolic Activation: NONE, Method: STANDARD PLATE) is “inactive; negative”; the mutagenic call (Test System: AMES SALMONELLA TYPHIMURIUM, Strain/Indicator: TA100, Metabolic Activation: RAT, LIVER, S-9, AROCLOR 1254 (10%), Method: PREINCUBATION) is “inactive; negative”; the mutagenic call (Test System: AMES SALMONELLA TYPHIMURIUM, Strain/Indicator: TA100, Metabolic Activation: RAT, LIVER, S-9, AROCLOR 1254 (30%), Method: PREINCUBATION) is “inactive; negative”; the mutagenic call under setting [4] was “inactive; negative”. Moreover, the mutagenic call by setting is: (Test System: AMES SALMONELLA TYPHIMURIUM, Strain/Indicator: TA104, Metabolic Activation: NONE, Method: STANDARD PLATE) “inactive; negative”; (Test System: AMES SALMONELLA TYPHIMURIUM, Strain/Indicator: TA104, Metabolic Activation: RAT, LIVER, S-9, AROCLOR 1254, Method: STANDARD PLATE) “inactive; negative”; (Test System: AMES SALMONELLA TYPHIMURIUM, Strain/Indicator: TA1535, Metabolic Activation: HAMSTER, LIVER, S-9, AROCLOR 1254 (10%), Method: PREINCUBATION) “inactive; negative”; (Test System: AMES SALMONELLA TYPHIMURIUM, Strain/Indicator: TA1535, Metabolic Activation: HAMSTER, LIVER, S-9, AROCLOR 1254 (30%), Method: PREINCUBATION) “inactive; negative”; (Test System: AMES SALMONELLA TYPHIMURIUM, Strain/Indicator: TA1535, Metabolic Activation: NONE, Method: PREINCUBATION) “inactive; negative”; (Test System: AMES SALMONELLA TYPHIMURIUM, Strain/Indicator: TA1535, Metabolic Activation: RAT, LIVER, S-9, AROCLOR 1254 (10%), Method: PREINCUBATION) “inactive; negative”. For the same molecule, the mutagenic call is, setting by setting: (Test System: AMES SALMONELLA TYPHIMURIUM, Strain/Indicator: TA1535, Metabolic Activation: RAT, LIVER, S-9, AROCLOR 1254 (30%), Method: PREINCUBATION) “inactive; negative”; (Test System: AMES SALMONELLA TYPHIMURIUM, Strain/Indicator: TA1537, Metabolic Activation: HAMSTER, LIVER, S-9, AROCLOR 1254 (30%), Method: PREINCUBATION) “inactive; negative”; (Test System: AMES SALMONELLA TYPHIMURIUM, Strain/Indicator: TA1537, Metabolic Activation: NONE, Method: PREINCUBATION) “inactive; negative”; (Test System: AMES SALMONELLA TYPHIMURIUM, Strain/Indicator: TA1537, Metabolic Activation: RAT, LIVER, S-9, AROCLOR 1254 (30%), Method: PREINCUBATION) “inactive; negative”.
As for `Nc1cccc(-c2ccccc2)c1`, the mutagenic call is “inactive; negative” under setting [1]; “inactive; negative” (Test System: AMES SALMONELLA TYPHIMURIUM, Strain/Indicator: TA98, Metabolic Activation: RAT LIVER S-9, AROCLOR 1254, Method: PREINCUBATION); “active; positive” (Test System: AMES SALMONELLA TYPHIMURIUM, Strain/Indicator: TA98, Metabolic Activation: RAT, LIVER, S-9, AROCLOR 1254 (4%), Method: STANDARD PLATE); “inactive; negative” under setting [2]; “inactive; negative” under setting [3]; “inactive; negative” (Test System: AMES SALMONELLA TYPHIMURIUM, Strain/Indicator: TA100, Metabolic Activation: RAT LIVER S-9, AROCLOR 1254, Method: PREINCUBATION). Besides, the mutagenic call under setting [4] is “inactive; negative”.
